“Also recorded” adds a separate entry of the source. Like-named read-outs stand apart in the source and are kept apart here. Where a SMILES comes first, the peptide text is derived from it. [ ]: non-standard residue; d: D form.

The conditions of data set [1]: in vivo. On the procedure:
A weight of each mouse was measured before being died of bleeding.
As a result, in the control group into which a peptide was not administered (n=8), the number of dead individuals after 24 days from transplanting the A431-CNGB3-myc cells into the peritoneal cavity was 1, and the alive rate was […]. With respect to this, in a group into which the IF7 (RR)−(K+H) peptide was administered such that the IF7 (RR)−(K+H) peptide was 10 μg/body/day or 50 μg/body (n=6), the alive rate was 100%. In addition, at the time of the end of the test, the spread of cancer cells (A431-CNGB3-myc cells) in the peritoneal cavity of all mice was examined.

Data set [2] relates to A431-CNGB3-myc cells. Kind of data set: Cytocidal activity by ATP amount (CellTiter-Glo luminescence) in peptide-treated A431-CNGB3-myc cells. The format is cell-based, human. The following applies: for cytocidal activity (relative ATP amount %): Example 6, A431-CNGB3-myc cells, 2.34 to 300.0 μM, FIG. 10. On the procedure:
A transformed cell (A431-CNGB3-myc cell) obtained by introducing a gene encoding human CNGB3, in which an myc tag was fused in a C-terminal, into an A431 cell (human epithelial-like cell cancer-derived cell strain) and forcibly expressing thereof was prepared as an endometriosis model cell.
Culturing of the A431-CNGB3-myc cell was performed at 37° C. in a 5 volume % carbon dioxide environment using a medium in which 10% of inactivated FBS (bovine fetal serum, manufactured by Corning Corporation) and 1% of penicillin-streptomycin (manufactured by Invitrogen Corporation) were contained in a DMEM High Glucose medium (manufactured by GIBCO Corporation), as a culture medium. Passage was performed every two or three days.
The cytocidal activity of each peptide was evaluated by measuring an ATP amount in A431-CNGB3-myc cells treated with each peptide using CellTiter-Glo (registered trademark) assay kit (manufactured by Promega).
Specifically, first, A431-CNGB3-myc cells after 2 passages were disseminated into a 96-well plate (manufactured by Corning/Costar, Lot No. 00515003) so as to be 1×10^4 cells/well by preparing the concentration of the cells. After culturing for 2 days after the dissemination, each peptide was added to each well such that a final concentration was […], 75, or 150 μM, respectively, and cultured for 24 hours. Thereafter, the culture supernatant was removed from each well, and CellTiter-Glo buffer was added to the remaining cells, and after homogenization, the supernatant was recovered by centrifugation and used as a lysate. A double quantity of PBS and a 2×CellTiterGlo Reagent of the equivalent amount of the lysate were added to the lysate and stirred to obtain a reaction solution, and the reaction solution was stood at room temperature for 10 minutes. The luminescence intensity (Luminescence) (RLU: RELATIVE LIGHT UNITS) of the reaction solution after standing at room temperature was measured using a Synergy H1 hybrid multi-mode microplate reader (manufactured by BioTek Corporation). The luminescence intensity of the reaction solution is an indicator of the amount of ATP. It is shown that the smaller the luminescence intensity of the reaction solution is, the amount of ATP is small, and the cytocidal activity of the administered peptide is strong. All trials were measured in triplicate and the average was evaluated as the cytocidal activity at the concentration of each peptide.
The final concentration of each peptide added to the A431-CNGB3-myc cells disseminated into the 96-well plate was set to be 2.34, 4.69, 9.38, 18.8, 37.5, 75, or 150 μM, and the cytocidal activity of each peptide was evaluated in the same manner as that of Reference Example 1, except that the culture time after addition of the peptide was set to 20 hours. In the evaluation of the cytocidal activity against the A431-CNGB3-myc cells of each peptide, the measurement result of the fluorescence intensity (RLU) of each reaction solution is shown in FIG. 2. In the figure, “1” to “16” show the result of the reaction solution to which peptides 1 to 16 of Table 2 were added, respectively.
The cytocidal activity of each peptide was evaluated in the same manner as that of Example 1, except that the final concentration of each peptide added to each cell disseminated into the 96-well plate was set to be 0 (peptide non-added), 2.34, 4.69, 9.38, 18.8, 37.5, 75.0, 150.0, or 300.0 μM. A relative fluorescence intensity (%) of each reaction solution in a case Where the fluorescence intensity (RLU) of the reaction solution to which no peptide was added was set to 100% was calculated as a relative ATP amount (%). […]

Data set [3] relates to Ishikawa, SNG-II, Hec-1A and RL95-2 cells (cell strains derived from a uterine cancer cell). Briefly: Cytocidal activity by relative ATP amount (CellTiter-Glo) in cell strains derived from uterine cancer cells. The class given is cell-based, human. The following applies: Example 6, 2.34 to 300.0 μM, 20 hours, FIGS. 11 to 14. On the procedure:
As the cancer-derived cell strain, an Ishikawa cell derived from human endometrium gland cancer, an SNG-II cell derived from human endometrium cancer, an Hec-1A cell derived from human uterine body cancer, and a RL95-2 cell derived from human endometrium cancer were used. The cells were cultured in the same manner as the A431-CNG133-myc cells.
The cytocidal activity of each peptide was evaluated in the same manner as that of Example 1, except that the final concentration of each peptide added to each cell disseminated into the 96-well plate was set to be 0 (peptide non-added), 2.34, 4.69, 9.38, 18.8, 37.5, 75.0, 150.0, or 300.0 μM. A relative fluorescence intensity (%) of each reaction solution in a case Where the fluorescence intensity (RLU) of the reaction solution to which no peptide was added was set to 100% was calculated as a relative ATP amount (%). In the figure, the “14D−Z13+5D−Z13” represents a relative ATP amount of the reaction solution to which both of a peptide A2-1 and a peptide A2-2 were added, the “14D−Z13” represents a relative ATP amount of the reaction solution to which only the peptide A2-1 was added, the “5D−Z13” represents a relative ATP amount of the reaction solution to Which only the peptide A2-2 was added, and the “14D−5D−Z13” represents a relative ATP amount (%) of the reaction solution to which only the peptide A2 was added, respectively.

[4] abbreviates: Example 1, peptide 2.34 to 150 μM, 20 hours, FIG. 2.
Where [5] appears, read: Reference Example 1, peptide 35.5, 75 or 150 μM, 24 hours, FIG. 1.

Consider `CC[C@H](C)[C@H](N)C(=O)N[C@@H](Cc1ccccc1)C(=O)N[C@@H](CC(C)C)C(=O)N[C@@H](CC(C)C)C(=O)N[C@@H](Cc1c[nH]c2ccccc12)C(=O)N[C@@H](CCC(N)=O)C(=O)N[C@@H](CCCNC(=N)N)C(=O)N[C@@H](CCCNC(=N)N)C(=O)N[C@@H](CCCNC(=N)N)C(=O)N[C@H](CCCCN)C(=O)N[C@H](CC(C)C)C(=O)N[C@H](C)C(=O)N[C@H](CCCCN)C(=O)N[C@H](CC(C)C)C(=O)N[C@H](C)C(=O)N[C@H](CCCCN)C(=O)N[C@H](CCCCN)C(=O)N[C@H](CC(C)C)C(=O)N[C@H](C)C(=O)N[C@H](CCCCN)C(=O)N[C@H](CC(C)C)C(=O)N[C@H](C)C(=O)N[C@H](CCCCN)C(=O)N[C@H](Cc1c[nH]cn1)C(=O)N[C@H](CC(C)C)C(=O)N[C@H](C)C(=O)N[C@H](Cc1c[nH]cn1)C(=O)N[C@H](CC(C)C)C(=O)O` [IF7 (RR)−(K+H) peptide, IFLLWQR-RR-KLAKLAK-KLAKLAK-HLAHL] (H-IFLLWQRRR[dK][dL][dA][dK][dL][dA][dK][dK][dL][dA][dK][dL][dA][dK][dH][dL][dA][dH][dL]-OH), for which the “weight of each mouse” value in data set [1] is on record as “no particular change”.
For the molecule `CC(C)C[C@@H](NC(=O)[C@H](N)CCCCN)C(=O)N[C@H](C)C(=O)N[C@H](CCCCN)C(=O)N[C@H](CC(C)C)C(=O)N[C@H](C)C(=O)N[C@H](CCCCN)C(=O)N[C@H](CCCCN)C(=O)N[C@H](CC(C)C)C(=O)N[C@H](C)C(=O)N[C@H](CCCCN)C(=O)N[C@H](CC(C)C)C(=O)N[C@H](C)C(=O)N[C@H](CCCCN)C(=O)N[C@H](Cc1c[nH]cn1)C(=O)N[C@H](CC(C)C)C(=O)N[C@H](C)C(=O)N[C@H](Cc1c[nH]cn1)C(=O)N[C@H](CC(C)C)C(=O)N[C@H](C(=O)N[C@@H](CCCNC(=N)N)C(=O)N[C@@H](CCCNC(=N)N)C(=O)N[C@@H](C)C(=O)N[C@@H](CC(=O)O)C(=O)N[C@@H](CC(N)=O)C(=O)N[C@@H](CCCNC(=N)N)C(=O)N1CCC[C@H]1C(=O)NCC(=O)O)C(C)C` [Peptide A2, KLAKLAK-KLAKLAK-HLAHL-VRRADNRPG] (H-[dK][dL][dA][dK][dL][dA][dK][dK][dL][dA][dK][dL][dA][dK][dH][dL][dA][dH][dL]VRRADNRPG-OH), the “weight of each mouse” value in data set [1] (ip) was “no particular change”.
As for “HLAHL-VRRADNRPG (HLAHLVRRADNRPG; KLAK(14)-HLAH(5)-Z13 peptide) [Peptide A2-2]”, the “cytocidal activity (relative ATP amount %)” value in data set [2] (20 hours) and in data set [3] was “hardly observed or significantly weak” in each case.
As to “HLAHLAH-HLAHLAH-KLAKLAK-VRRADNRPG (HLAHLAHHLAHLAHKLAKLAKVRRADNRPG; HLAH(14)-KLAK(13)-Z13 peptide) [Peptide 16]”, in data set [2] (setting [4]), the “cytocidal activity, comparison between peptides” value was “stronger cytocidal activity than the longest peptide 9”.
For “KLAKLAK-KLAKLAK-HLAHLAH-HLAHLAH-VRRADNRPG (KLAKLAKKLAKLAKHLAHLAHHLAHLAHVRRADNRPG; D-residues) [WT]”, in data set [2] (setting [5]), the “cytocidal activity (luminescence intensity RLU, indicator of ATP amount)” value is “concentration-dependent cytocidal activity” and the “cytocidal activity, comparison between peptides” value is “stronger cytocidal activity than the peptide D5E”.
For “KLAKLAK-KLAKLAK-HLAHLAH-HLAHLAH-VRRAENRPG (KLAKLAKKLAKLAKHLAHLAHHLAHLAHVRRAENRPG; KLAK(14)-HLAH(14)-D5E peptide) [Peptide D5E]”, in data set [2] (setting [5]), the “cytocidal activity (luminescence intensity RLU, indicator of ATP amount)” value is “concentration-dependent cytocidal activity”.
In the case of “KLAKLAK-KLAKLAK-HLAHLAH-VRRADNRPG (KLAKLAKKLAKLAKHLAHLAHVRRADNRPG; KLAK(14)-HLAH(7)-Z13 peptide) [Peptide 8]”, the “cytocidal activity, comparison between peptides” value in data set [2] (setting [4]) is recorded as “stronger cytocidal activity than the longest peptide 1; also recorded: strongest cytocidal activity”.
“KLAKLAK-KLAKLAK-VRRADNRPG (KLAKLAKKLAKLAKVRRADNRPG; KLAK(14D)-Z13 peptide) [Peptide A2-1]”: the “cytocidal activity (relative ATP amount %)” value in data set [2] (20 hours) and in data set [3] was “hardly observed or significantly weak” in each case.

For the origin of these results see patent publication US11357819B2, “Cytocidal agent” (FUJITA ACADEMY, priority 2017, dated 2022).
